Patent US10336701B2, “Pyridin-2-one derivatives of formula (II) useful as EP3 receptor antagonists” (Janssen Pharmaceutica NV, priority 2017, dated 2019)

Assays:
EP3 receptor [1] = biological target: T1, EP3 receptor (Homo sapiens, UniProt P43115); assay: [3H]-PGE2 binding assay (EP3 competition binding); conditions: read-out: [3H]-PGE2 Binding Ki
T1 construct: purchased Millipore HTS092M
T1 sequence (P43115 1-390): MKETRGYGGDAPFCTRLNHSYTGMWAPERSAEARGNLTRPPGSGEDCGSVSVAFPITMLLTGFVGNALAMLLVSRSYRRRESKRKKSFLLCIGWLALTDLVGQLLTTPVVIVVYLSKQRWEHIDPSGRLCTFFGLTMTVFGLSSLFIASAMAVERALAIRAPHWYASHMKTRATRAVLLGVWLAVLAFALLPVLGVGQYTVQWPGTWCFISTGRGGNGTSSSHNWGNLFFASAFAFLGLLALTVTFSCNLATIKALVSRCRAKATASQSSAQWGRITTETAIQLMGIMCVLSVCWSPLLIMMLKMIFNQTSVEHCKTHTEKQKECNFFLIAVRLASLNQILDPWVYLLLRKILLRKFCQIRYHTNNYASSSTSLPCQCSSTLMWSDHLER
Procedure, shortened: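 Scintillation-bead competition binding with EP3 membranes (2 μg/well), 2 nM [3H]-PGE2, 0.1% DMSO, in 50 mM Tris, 10 mM MgCl2, 1 mM EDTA, pH 7.4.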

EP3 receptor [2] = biological target: T1, EP3 receptor; assay: CHO cell cAMP assay (forskolin and sulprostone stimulated, HTRF); assay type: cell-based; conditions: CHO cells; sulprostone 700 nM (EC80) and FSK 2 μM (EC70), 37° C. for 30 minutes; read-out: CHO_cAMP IC50

Compound	Ki (EP3 receptor [1])	IC50 (EP3 receptor [2])
CCn1ncc2c(C)cc(-c3ccc(C(CC4OC(=O)NC4=O)C(C)C)c(=O)[nH]3)cc21 (centres unmarked) [compound 126, 5-(2-(6-(1-ethyl-4-methyl-1H-indazol-6-yl)-2-oxo-1,2-dihydropyridin-3-yl)-3-methylbutyl)oxazolidine-2,4-dione]	0.065 µM	0.382 µM
CCN1CCOc2ccc(-c3ccc(C(C(C)C)N4CCSCC4)c(=O)[nH]3)cc21 (centres unmarked) [Compound #164, 6-(4-ethyl-3,4-dihydro-2H-benzo[b][1,4]oxazin-6-yl)-3-(2-methyl-1-thiomorpholinopropyl)pyridin-2(1H)-one]	0.026 µM	0.485 µM
CCn1cc2c(C)cc(-c3ccc(C(CC4OC(=O)NC4=O)C(C)C)c(=O)[nH]3)cc2n1 (centres unmarked) [compound 86, 5-(2-(6-(2-ethyl-4-methyl-2H-indazol-6-yl)-2-oxo-1,2-dihydropyridin-3-yl)-3-methylbutyl)oxazolidine-2,4-dione]	0.114 µM	0.916 µM
CCn1cc2c(C)cc(-c3ccc(C(/C=C4\OC(=O)NC4=O)C(C)C)c(=O)[nH]3)cc2n1 (centres unmarked) [compound 98, (Z)-5-(2-(6-(2-ethyl-4-methyl-2H-indazol-6-yl)-2-oxo-1,2-dihydropyridin-3-yl)-3-methylbutylidene)oxazolidine-2,4-dione]	> 10 µM	> 20 µM
CC(C)C(/C=C1\OC(=O)NC1=O)c1ccc(-c2ccc3c(c2)N(C)CCO3)[nH]c1=O (centres unmarked) [compound 108, (Z)-5-(3-methyl-2-(6-(4-methyl-3,4-dihydro-2H-benzo[b][1,4]oxazin-6-yl)-2-oxo-1,2-dihydropyridin-3-yl)butylidene)oxazolidine-2,4-dione]	0.171 µM	0.602 µM
CC(C)C(NS(=O)(=O)C1CCCCC1)c1ccc(-c2ccc3cccc(F)c3c2)[nH]c1=O (centres unmarked) [Compound #165, N-(1-(6-(8-fluoronaphthalen-2-yl)-2-oxo-1,2-dihydropyridin-3-yl)-2-methylpropyl)cyclohexanesulfonamide]	0.031 µM	0.25 µM
CC(C)C(c1ccc(-c2ccc3cccc(F)c3c2)[nH]c1=O)n1cnnc1N (centres unmarked) [compound 160, 3-(1-(3-amino-4H-1,2,4-triazol-4-yl)-2-methylpropyl)-6-(8-fluoronaphthalen-2-yl)pyridin-2(1H)-one]	0.013 µM	0.044 µM
CCn1cc2ccc(-c3ccc(C(CC4OC(=O)NC4=O)C(C)C)c(=O)[nH]3)cc2n1 (centres unmarked) [compound 120, 5-(2-(6-(2-ethyl-2H-indazol-6-yl)-2-oxo-1,2-dihydropyridin-3-yl)-3-methylbutyl)oxazolidine-2,4-dione]	> 10 µM	> 20 µM

Other lines, results leading:

Ki (EP3 receptor [1])	IC50 (EP3 receptor [2])	Compound
0.027 µM	0.095 µM	CC(C)C(c1ccc(-c2ccc3cccc(F)c3c2)[nH]c1=O)n1cnc(N)n1 (centres unmarked) [compound 161, 3-(1-(3-amino-1H-1,2,4-triazol-1-yl)-2-methylpropyl)-6-(8-fluoronaphthalen-2-yl)pyridin-2(1H)-one]
0.151 µM	0.779 µM	CC1(c2ccc(-c3ccc4ccccc4c3)[nH]c2=O)Cn2cnnc2N1 (centres unmarked) [compound 167, 3-[6-methyl-5H,6H,7H-imidazo[2,1-c][1,2,4]triazol-6-yl]-6-(naphthalen-2-yl)-1,2-dihydropyridin-2-one]
0.049 µM	0.18 µM	CC1(c2ccc(-c3ccc4ccccc4c3)[nH]c2=O)CN/C(=N\C#N)N1 (centres unmarked) [compound 283]
0.27 µM	0.68 µM	CC(C)/C(=C1\OC(=O)NC1=O)c1ccc(-c2ccc3cccc(F)c3c2)[nH]c1=O [compound 304, (E)-5-(1-(6-(8-fluoronaphthalen-2-yl)-2-oxo-1,2-dihydropyridin-3-yl)-2-methylpropylidene)oxazolidine-2,4-dione]
0.037 µM	0.527 µM	CCOC(=O)C(=C1CCCCC1)c1ccc(-c2ccc3ccccc3c2)[nH]c1=O [compound 281, ethyl 2-cyclohexylidene-2-(6-(naphthalen-2-yl)-2-oxo-1,2-dihydropyridin-3-yl)acetate]
